Data published in patent US6838236B1, “VPR function and activity” (priority 1993, dated 2005).

Columns and labels:
[1] = test system: human rhabdomyosarcoma cell line TE671; settings: well-described phenomenon; cited from earlier work
HIV-1 p24^gag antigen = test: HIV-1 p24gag antigen production, antigen-capture ELISA of culture medium; type: cell-based
[2] = test system: TE671 rhabdomyosarcoma cells; test: Biological activity of baculovirus vpr supernatant on TE671 cells; type: cell-based, human
Excerpt: Recombinant vpr protein can be tested for biological activity in tissue culture. Vpr and control supernatants were dialyzed against PBS and applied to TE671 rhabdomyosarcoma cells. TE671 cells differentiate and cease to proliferate when transfected with the vpr gene or infected with HIV (Gras-Masse et al., supra; Levy et al., supra). […] Cells exposed to vpr for 3 days were examined for the presence of adult muscle myosin, a differentiation marker for these cells (Aguanno et al., Cancer Res., 1990, 50, 3377).

OM-10.1 cells = test: Intracellular p24 fluorescence in OM-10.1 cells; type: cell-based; settings: vpr supernatant versus control supernatant
Protocol: In other experiments, OM-10.1 cells, which are T lymphoid in origin, were treated with either control supernatant lacking vpr or vpr supernatant from baculovirus-infected cells. Cells are shown in visible light and stained for intracellular p24 detected by fluorescence microscopy. The intensity of fluorescence is a measure of the virus expression.

[3] = continuous exposure to 20% vpr supernatant

Row | Compound | morphology and growth of stimulated TE671 cells [1] | increase in p24 release (HIV-1 p24^gag antigen; pNLpuroΔvpr-transfected cells exposed to phorbol ester) | p24 release (HIV-1 p24^gag antigen; undifferentiated pNLpuro-transfected cells exposed to phorbol ester) | time to cessation of proliferation [2, 3] | time to morphological differentiation [2, 3] | effect on cell survival ([2]; exposure to greater than 20% supernatant) | retrovirus expression, intracellular p24 fluorescence (OM-10.1 cells)
1 | CCCCCCCCCCCCCC(=O)O[C@@H]1[C@@H](C)[C@@]2(O)[C@@H](C=C(CO)C[C@]3(O)C(=O)C(C)=C[C@@H]23)[C@@H]2C(C)(C)[C@]12OC(C)=O [phorbol myristate acetate] | increase in overall size and length, are often multinucleated, and display slowed proliferation | 3 fold | no measurable p24 release |  |  |  | 
2 | vpr protein: HIV-1 viral protein R produced in baculovirus-infected insect cells, used as supernatant or partially purified |  |  |  | approximately 3 days | 7-9 days | rapidly fatal | induces a high level of retrovirus expression
